Test results from patent publication US7998976B2, “Certain chemical entities, compositions and methods” (Cytokinetics, Inc., priority 2008, dated 2011).

Tested on: skeletal sarcomere (skeletal myosin with actin, tropomyosin, and troponin complex)
Experiment: Screen of ATP hydrolysis rate of myosin with calcium-regulated actin filament (actin/tropomyosin/troponin), PK/LDH/NADH coupled enzyme system
Format: biochemical
Settings: screen conducted at pCa=6.5; unit not given
Description: For example, test compounds can be assayed in a highly parallel fashion by using multiwell plates by placing the compounds either individually in wells or testing them in mixtures. Assay components including the target protein complex, coupling enzymes and substrates, and ATP can then be added to the wells and the absorbance or fluorescence of each well of the plate can be measured with a plate reader.
In some embodiments, the method uses a 384 well plate format and a 25 μL reaction volume. A pyruvate kinase/lactate dehydrogenase coupled enzyme system (Huang T G and Hackney D D. (1994) J Biol Chem 269(23):16493-501) can be used to measure the rate of ATP hydrolysis in each Well. As will be appreciated by those in the art, the assay components are added in buffers and reagents. The incubation periods can be optimized to give adequate detection signals over the background. The assay can be done in real time giving the kinetics of ATP hydrolysis which increases the signal to noise ratio of the assay.
Actin was purified by first preparing an ether powder of cardiac muscle (Zot H G and Potter J D. (1981) Preparative Biochemistry 11:381-395) as described below. Subsequently, actin was cycled between the filamentous and soluble state through rounds of centrifugation and dialysis (Spudich J A and Watt S. (1971) J. Biol. Chem. 246:4866-4871). It was stored in the filamentous state at 4° C.
Tropomyosin was extracted from the ether powder and separated from the other proteins based on pH dependent precipitations followed by successive ammonium sulfate cuts at 53% and 65% (Smillie L B. (1981) Methods Enzymol 85 Pt B:234-41). The troponins were isolated as an intact complex of TnC, TnT, and TnI. Ether powder is extracted in a high salt buffer. Successive ammonium sulfate cuts of 30% and 45% were done; the precipitate was solubilized by dialysis into a low salt buffer and then further purified on a DEAE Toyopearl column with a 25-350 mM KCl gradient.
Just prior to screening, the actin, tropomyosin, and troponin complex are mixed together in the desired ratio (e.g., 7:1:1) to achieve maximal calcium regulation of the actin filament. The screen is conducted at a pCa=6.5. This calcium concentration is in the physiological range during muscle contraction.
To measure the generation of ADP during the reaction, a pyruvate kinase/lactate dehydrogenase/NADH coupled enzyme system (PK/LDH) is added to the actin. The myosin is kept separately. The plates are read in real time so that kinetic curves are obtained. These compounds are in DMSO and were already spotted onto the bottoms of 384 well plates at 10 to 40 μg/ml final concentration.
• 1. Obtain ˜1000 g skeletal muscle, such as rabbit skeletal muscle. • 2. Grind twice; extract with 2 L solution A for 15 min while stirring; add 4 L cold H2O, filter through gauze; dilute with cold H2O to ionic strength of 0.04, (about 10-fold); let settle for 3 h; collect precipitate at 7,000 rpm in GSA rotor for 15 min. • 3. Disperse pellet in 220 ml solution B; dialyze overnight against 6 L solution C; slowly add ˜400 ml equal volume cold distilled H2O; stir for 30 min; centrifuge at 10,000 rpm for 10 min in GSA rotor. • 4. Centrifuge supernatant at 19,000 rpm for 1 h. • 5. Dilute supernatant to ionic strength of 0.04 (˜8-fold); let myosin settle overnight; collect about 5-6 L fluffy myosin precipitate by centrifuging at 10,000 rpm for 10 min in GSA rotor. • 6. Resuspend pellet in minimal volume of solution G; dialyze overnight against 2 L solution D; centrifuge at 19,000 rpm for 2 h, in cellulose nitrate tubes; puncture tubes and separate myosin from fat and insoluble pellet. • 7. Dilute supernatant to 5-10 mg/ml and dialyze against solution E extensively, load onto DEAE-sephadex column. • 8. […]

| AC1.4 Median | Molecule |
| --- | --- |
| 43.299 | 3-(ethylpropyl)-5-methylimidazo[5,4-b]pyridin-2-ol |
| 8.050 | CCC(CC)n1c(O)nc2ccc(Br)nc21 [5-bromo-3-(ethylpropyl)imidazo[5,4-b]pyridin-2-ol] |
| 2.611 | 5-(dimethylamino)-3-(ethylpropyl)imidazo[5,4-b]pyridin-2-ol |
| 0.840 | C/C=C\c1ccc2nc(O)n(C(CC)CC)c2n1 [5-((1Z)prop-1-enyl)-3-(ethylpropyl)imidazo[5,4-b]pyridin-2-ol] |
| 21.134 | CCC(CC)n1c(O)nc2ccc(Cl)nc21 [5-chloro-3-(ethylpropyl)imidazo[5,4-b]pyridin-2-ol] |
| 3.836 | 3-(ethylpropyl)-5-vinylimidazo[5,4-b]pyridin-2-ol |
| 2.366 | 3-(ethylpropyl)-5-ethynylimidazo[5,4-b]pyridin-2-ol |
